Columns and labels:
Assay type in all cases: cell-based, human
[1] = test system: H1299 cells; assay: Seahorse oxygen consumption rate (mitochondrial stress test)
Experimental: (§1) Seahorse extracellular flux analyzer experiments. Cells derived from spheres or monolayer cultures were dissociated and plated overnight at 12,000 cells/well in DMEM with 10% FBS, 5 mM glucose, 1 mM pyruvate, 2 mM glutamine.
For the mitochondrial stress test, the media was replaced with DMEM without FBS or bicarbonate, containing 5 mM glucose, 1 mM pyruvate, 2 mM glutamine and placed in a CO2 free incubator at 37° C. for 1 hour, and then transferred to the Xf96 extracellular flux analyzer (Agilent; Santa Clara, CA). The program consisted of 3 measurements of OCR/ECAR before the injection of each drug: oligomycin (0.5 μM final concentration), FCCP (2 μM) and rotenone/antimycin (0.5 μM of each). […] There were 3 measurements of OCR/ECAR before each injection: glucose (10 mM final concentration), oligomycin (0.5 […] (50 mM). For the analysis of glutamine oxidation, the protocol was the same as the glucose stress test, but with glutamine being the only compound injected (final concentration 4 mM) and OCR/ECAR measured for 60 minutes. When spheres were analyzed, they were dissociated with StemPro® Accutase® (Thermo Scientific; Waltham, MA) and plated under the same conditions as above as for the monolayers the day before the assay (H1299 spheres), or in stem cell media (See Stem Cell Media) with the wells coated in 15 μL of 2% geltrex diluted in DMEM:F12 (Thermo Scientific). […]

[2] = test system: H1299 cells; assay: Proliferation / viability in monolayer (2D) cultures
Experimental: Cellular proliferation and cytotoxicity assays. The proliferative capacity of cells was assessed by plating cells in triplicate at a concentration of 2,000 to 10,000 cells/well in 96 well plates in triplicate, with or without drug treatment for 48 hours. The cells were then washed with 1×PBS and fixed with cold 100% methanol at−20° C. for 20 minutes. Methanol was washed off and the cells were stained with 0.5% crystal violet dissolved in 25% methanol and water at 4° C. for 20 minutes. The staining was washed off using deionized (DI) water and the plate was dried overnight. On the second day, 100 mM sodium citrate in 50% ethanol and 50% water was added to the wells and absorbance at 550 nm was measured and corrected with readings at 405 nm. In other experiments, cell viability was assessed by trypan blue exclusion and visual count of the live cells was performed.

[3] = test system: H1299 spheres; assay: Cell cycle analysis of spheres; conditions: after three days of treatment
Experimental: Flow cytometry. Tumor cells were trypsinized and washed in 1×PBS. The cells were then stained with the antibodies of choice: CD166-PE (Biolegend), CD133-647 (Biolegend), or CD44 (Biolegend), in 1% BAS-PBS. The cell cycles of monolayers or spheres of the cells were analyzed by fixing the cells in cold 75% ethanol. The annexin V (Biolegend) and propidium iodide (Biolegend) experiments were carried out.

[4] = test system: H1299 cells; assay: Glycolysis: ECAR (Seahorse) and lactic acid levels
Experimental: Cells, reagents, antibodies, primers. The H1299 cell lines and other cell lines employed in this study were obtained from ATCC or from the tissue culture core facility at LCCC. Cells were grown in Dulbecco's Modified Eagle's Medium (DMEM, 25 mM glucose, with glutamine and pyruvate from Invitrogen; Carlsbad, CA) and supplemented with 10% fetal calf serum (FCS). […] The SLC25A1 specific shRNA vectors were purchased from Sigma. The vector expressing human SLC25A1 untagged or Flag-Myc epitope tagged were from Origene; Rockville, MD (#SC120727 and RC200657, respectively). The anti-SLC25A1 antibody used in immuno-blot was from Santa Cruz Biotech, #sc-86392 employed at 1:1000 dilution. Citrate, lactate, and PFK measurements were performed by using commercially available kits (Biovision (Milpitas, CA)).
as §1
For the mitochondrial stress test, the media was replaced with DMEM without FBS or bicarbonate, containing 5 mM glucose, 1 mM pyruvate, 2 mM glutamine and placed in a CO2 free incubator at 37° C. for 1 hour, and then transferred to the Xf96 extracellular flux analyzer (Agilent; Santa Clara, CA). The program consisted of 3 measurements of OCR/ECAR before the injection of each drug: oligomycin (0.5 μM final concentration), FCCP (2 μM) and rotenone/antimycin (0.5 μM of each). For the glycolysis stress test, cells were plated overnight as above, and the media was washed twice the following day with DMEM without FBS, bicarbonate, glucose, glutamine or pyruvate, and incubated in this media in a CO2 free incubator with/without drug treatments at 37° C. for 4 hours. There were 3 measurements of OCR/ECAR before each injection: glucose (10 mM final concentration), oligomycin (0.5 […] (50 mM). For the analysis of glutamine oxidation, the protocol was the same as the glucose stress test, but with glutamine being the only compound injected (final concentration 4 mM) and OCR/ECAR measured for 60 minutes. When spheres were analyzed, they were dissociated with StemPro® Accutase® (Thermo Scientific; Waltham, MA) and plated under the same conditions as above as for the monolayers the day before the assay (H1299 spheres), or in stem cell media (See Stem Cell Media) with the wells coated in 15 μL of 2% geltrex diluted in DMEM:F12 (Thermo Scientific). The results were normalized to cell number.

O=C(O)c1ccccc1NS(=O)(=O)c1ccc(Cl)c([N+](=O)[O-])c1 [CTPI-2]
respiratory activity of cells expressing the SLC25A1 shRNA ([1]; SLC25A1 shRNA cells): failed to affect the respiratory activity | respiratory capacity (OCR) ([1]; treated for three hours, spheres and monolayers): inhibited respiratory capacity in a dose-dependent fashion | proliferation of cells expressing the SLC25A1-shRNA ([2]; SLC25A1-shRNA lentivirus, live cells counted after one week): failed to inhibit proliferation | anti-proliferative activity, ranges of concentrations ([2]; monolayer or methylcellulose single cells (FIG. 3J)): anti-proliferative activity at comparable ranges of concentrations | cell cycle effect in spheres [3]: modestly cytostatic | lactic acid levels ([4]; monolayer cultures): increase in lactic acid levels | ECAR rates ([4]; monolayer cultures, after 10 mM glucose injection): starkly induced | ECAR and lactic acid levels ([4]; spheres): remained unchanged or were slightly diminished
